From patent US7897640B2 (priority 2003, dated 2011)
Marks after values point to notes of the source that are not given here.

What was measured:
human T lymphocytes MT-4 = assay: cytotoxicity by MTT in MT-4 culture; settings: MT-4 culture with HIV-1 IIIB, 96 hours
[1] = test system: human peripheral blood mononuclear cell (PBMC); assay: cytotoxicity by MTT in HIV-infected PBMC culture; settings: 96 hours
Protocol: 10 μl MTT dye (5 mg/ml) was added to each well, and then incubated at 37° C., 5% CO2 saturated humidity incubator for 4 hours. 100 μl 50% DMF-17% Triton X-100 destainer was added to each well and the mixtures were kept at 37° C. overnight. Then OD570nm values were measured at 570 nm with a luminometer to calculate the median cytotoxicity concentration of medicament (CC50).
The fresh normal human venous blood was taken and PBMC was separated using FiColl separation solution. The 1.5×10^5 cells/ml suspension prepared with the culture fluid containing PHA was seeded into the culture bottle and incubated in the incubator (37° C., 5% CO2) for 72 hours. The cells were collected with cell scrapers then were infected with the 10^−2 viral liquid of AZT-sensitive (018a) or AZT-resistant (018c) viral strain. After absorption for 2 hours, the non-absorbed viruses were washed with serum-free 1640 culture medium. The infected cells were prepared into 1×10^6 cells/ml with the culture fluid, and then were seeded into the 96-well culture board in 100 μl/well. At the same time, 100 μl liquor of 2× diluted AKJ-2 or 5× diluted positive control medicament AZT with different concentrations was added. The cell control group and virus control group were established. Four days (96 hours) after incubating under 37° C., 5% CO2, the supernatants were sucked out and stored at −20° C. to measure HIV-1-P24 antigen titer and calculate the inhibition effect of the medicament. The cells were dyed with MTT to measure the cytotoxicity.

[2] = test system: duck hepatitis B virus (DHBV); assay: pharmacotherapy test in DHBV infected ducklings, serum DHBV-DNA dot-blot; assay type: in vivo, Beijing ducklings
HIV-1 IIIB [3] = assay: HIV-1 P24 antigen inhibition in MT-4 culture; settings: MT-4, HIV-1 IIIB
Protocol: MT-4 cell suspension was counted, then 100 μl of suspension (2×10^5 cells/ml) was seeded into 96-well cell culture plate, 50 μl liquor of 2× diluted medicament or 4-5× diluted positive medicament AZT (8 concentrations) was added, respectively, and 50 μl virus suspension with proper titer was add concurrently. Each dilution was repeated in 3 wells and cell control group and virus control group were established. They were incubated at 37° C., 5% CO2 saturated humidity incubator and the cytopathy was observed everyday. On the fourth day after administration (96 hours), the supernatants were sucked out and stored at −20° C. for measuring HIV-1-P24 antigen titer. Accordingly, the inhibition effect of medicament could be calculated, and the cells were dyed with MTT to measure the cytotoxicity.
The medicated cell supernatants infected with MT-4 were diluted after being thawed. HIV-1 P24 titer was measured according to the operation procedure described in HIV-1 P24 antigen kit.
[formula] 2.2.2 Reed & Muench Method for Calculating CC50 and EC50 of Medicament in Cell Culture
[formula] 2.2.3. Calculation Method of Selection Index (SI) of HIV-1 P24 Antigen in Cell Culture SI=CC50/EC50 3.

[4] = test system: AZT-sensitive strain HIV-1 018a; assay: HIV-1 P24 antigen inhibition in PBMC, AZT-sensitive strain; settings: PBMC, AZT-sensitive HIV-1 018a
HIV-1 IIIB [5] = assay: HIV-1 P24 antigen inhibition in chronically infected H9 cells
Protocol: HIV-1 P24 antigen titer was measured according to the operation procedures stated in HIV-1 P24 antigen kit.
100 μl (2×10^5 cells/ml) of H9 cells suspension was seeded into 96-well cell culture plate. Then, 100 μl liquor of 2× diluted medicament or 4-5× diluted positive AZT (8 concentrations) was added. Each dilution was repeated in three wells. The cell control group was established. The cells were incubated in the incubator (37° C., 5% CO2, saturated humidity) and the cytopathy was observed everyday. Four days (96 hours) after administration, the supernatants were sucked out and stored at −20° C. to measure HIV-1-P24 antigen titer. The inhibition effect of the medicament was determined. The cells were dyed with MTT to measure the cytotoxicity.
2.2.2 Reed & Muench Method for Calculating CC50 and EC50 of Medicament in Cell Culture
Calculation Method of Selection Index (SI) of HIV-1 P24 Antigen in Cell Culture SI=CC50/EC50 3.

[6] = test system: AZT-resistant strain HIV-1 018c; settings: PBMC, AZT-resistant HIV-1 018c
[7] = test system: human T lymphocytes H9 chronically infected with HIV-1 IIIB; assay: cytotoxicity by MTT in H9 cells chronically infected with HIV-1 IIIB; settings: H9 cell chronically infected with HIV-1 IIIB, 96 hours
solubility = assay type: physicochemical

CC(C)=CC[C@H](OC(=O)C=C(C)C)C1=CC(=O)c2c(O)ccc(O)c2C1=O [AKJ, β,β-dimethyl-acryl-alkannin]
Median cytotoxicity concentration (CC50) (human T lymphocytes MT-4): 0.31 ± 0.04 µg/mL | Median cytotoxicity concentration (CC50) ([1]; PBMC infected with AZT-resistant HIV-1 018c): 5.55 ± 0.136 µg/mL | Median cytotoxicity concentration (CC50) ([1]; PBMC infected with AZT-sensitive HIV-1 018a): 5.66 ± 0.28 µg/mL | Serum DHBV-DNA OD490 value (X ± SD) ([2]; Lot I, 25 mg/kg oral bid x 10 days, P3 (third day after cessation)): 0.792 ± 0.13 | Serum DHBV-DNA level Inhibitory Rate (%) ([2]; Lot I, 25 mg/kg oral bid x 10 days, P3 vs T0): 5.43% | Serum DHBV-DNA OD490 value (X ± SD) ([2]; Lot I, 25 mg/kg oral bid x 10 days, T0 (day before administration)): 0.851 ± 0.15 | Serum DHBV-DNA OD490 value (X ± SD) ([2]; Lot I, 25 mg/kg oral bid x 10 days, T5): 0.767 ± 0.18 | Serum DHBV-DNA level Inhibitory Rate (%) ([2]; Lot I, 25 mg/kg oral bid x 10 days, T5 vs T0): 8.81% | Serum DHBV-DNA OD490 value (X ± SD) ([2]; Lot I, 25 mg/kg oral bid x 10 days, T10): 0.762 ± 0.15 | Serum DHBV-DNA level Inhibitory Rate (%) ([2]; Lot I, 25 mg/kg oral bid x 10 days, T10 vs T0): 8.73% | Serum DHBV-DNA OD490 value (X ± SD) ([2]; Lot I, 50 mg/kg oral bid x 10 days, P3 (third day after cessation)): 0.696 ± 0.05 | Serum DHBV-DNA level Inhibitory Rate (%) ([2]; Lot I, 50 mg/kg oral bid x 10 days, P3 vs T0): 32.39** % | Serum DHBV-DNA OD490 value (X ± SD) ([2]; Lot I, 50 mg/kg oral bid x 10 days, T0 (day before administration)): 1.082 ± 0.23 | Serum DHBV-DNA OD490 value (X ± SD) ([2]; Lot I, 50 mg/kg oral bid x 10 days, T5): 0.961 ± 0.23 | Serum DHBV-DNA level Inhibitory Rate (%) ([2]; Lot I, 50 mg/kg oral bid x 10 days, T5 vs T0): 9.16% | Serum DHBV-DNA OD490 value (X ± SD) ([2]; Lot I, 50 mg/kg oral bid x 10 days, T10): 0.680 ± 0.09 | Serum DHBV-DNA level Inhibitory Rate (%) ([2]; Lot I, 50 mg/kg oral bid x 10 days, T10 vs T0): 33.56** % | Serum DHBV-DNA OD490 value (X ± SD) ([2]; Lot I, 100 mg/kg oral bid x 10 days, P3 (third day after cessation)): 0.667 ± 0.22 | Serum DHBV-DNA level Inhibitory Rate (%) ([2]; Lot I, 100 mg/kg oral bid x 10 days, P3 vs T0): 44.91** % | Serum DHBV-DNA OD490 value (X ± SD) ([2]; Lot I, 100 mg/kg oral bid x 10 days, T0 (day before administration)): 1.207 ± 0.23 | Serum DHBV-DNA OD490 value (X ± SD) ([2]; Lot I, 100 mg/kg oral bid x 10 days, T5): 0.987 ± 0.26 | Serum DHBV-DNA level Inhibitory Rate (%) ([2]; Lot I, 100 mg/kg oral bid x 10 days, T5 vs T0): 17.86* % | Serum DHBV-DNA OD490 value (X ± SD) ([2]; Lot I, 100 mg/kg oral bid x 10 days, T10): 0.757 ± 0.19 | Serum DHBV-DNA level Inhibitory Rate (%) ([2]; Lot I, 100 mg/kg oral bid x 10 days, T10 vs T0): 37.09** % | Serum DHBV-DNA OD490 value (X ± SD) ([2]; Lot II, 25 mg/kg oral bid x 10 days, P3 (third day after cessation)): 1.092 ± 0.13 | Serum DHBV-DNA level Inhibitory Rate (%) ([2]; Lot II, 25 mg/kg oral bid x 10 days, P3 vs T0): −12.91% | Serum DHBV-DNA OD490 value (X ± SD) ([2]; Lot II, 25 mg/kg oral bid x 10 days, T0 (day before administration)): 1.005 ± 0.22 | Serum DHBV-DNA OD490 value (X ± SD) ([2]; Lot II, 25 mg/kg oral bid x 10 days, T5): 1.061 ± 0.08 | Serum DHBV-DNA level Inhibitory Rate (%) ([2]; Lot II, 25 mg/kg oral bid x 10 days, T5 vs T0): −8.66% | Serum DHBV-DNA OD490 value (X ± SD) ([2]; Lot II, 25 mg/kg oral bid x 10 days, T10): 0.928 ± 0.09 | Serum DHBV-DNA level Inhibitory Rate (%) ([2]; Lot II, 25 mg/kg oral bid x 10 days, T10 vs T0): 5.67% | Serum DHBV-DNA OD490 value (X ± SD) ([2]; Lot II, 50 mg/kg oral bid x 10 days, P3 (third day after cessation)): 1.140 ± 0.25 | Serum DHBV-DNA level Inhibitory Rate (%) ([2]; Lot II, 50 mg/kg oral bid x 10 days, P3 vs T0): 14.99% | Serum DHBV-DNA OD490 value (X ± SD) ([2]; Lot II, 50 mg/kg oral bid x 10 days, T0 (day before administration)): 1.375 ± 0.28 | Serum DHBV-DNA OD490 value (X ± SD) ([2]; Lot II, 50 mg/kg oral bid x 10 days, T5): 1.075 ± 0.14 | Serum DHBV-DNA level Inhibitory Rate (%) ([2]; Lot II, 50 mg/kg oral bid x 10 days, T5 vs T0): 20.22** % | Serum DHBV-DNA OD490 value (X ± SD) ([2]; Lot II, 50 mg/kg oral bid x 10 days, T10): 0.947 ± 0.13 | Serum DHBV-DNA level Inhibitory Rate (%) ([2]; Lot II, 50 mg/kg oral bid x 10 days, T10 vs T0): 27.55* % | Serum DHBV-DNA OD490 value (X ± SD) ([2]; Lot II, 100 mg/kg oral bid x 10 days, P3 (third day after cessation)): 0.875 ± 0.17 | Serum DHBV-DNA level Inhibitory Rate (%) ([2]; Lot II, 100 mg/kg oral bid x 10 days, P3 vs T0): 18.04* % | Serum DHBV-DNA OD490 value (X ± SD) ([2]; Lot II, 100 mg/kg oral bid x 10 days, T0 (day before administration)): 1.080 ± 0.21 | Serum DHBV-DNA OD490 value (X ± SD) ([2]; Lot II, 100 mg/kg oral bid x 10 days, T5): 0.872 ± 0.13 | Serum DHBV-DNA level Inhibitory Rate (%) ([2]; Lot II, 100 mg/kg oral bid x 10 days, T5 vs T0): 18.14** % | Serum DHBV-DNA OD490 value (X ± SD) ([2]; Lot II, 100 mg/kg oral bid x 10 days, T10): 0.670 ± 0.14 | Serum DHBV-DNA level Inhibitory Rate (%) ([2]; Lot II, 100 mg/kg oral bid x 10 days, T10 vs T0): 36.65** % | Serum DHBV-DNA OD490 value (X ± SD) ([2]; Lot III, 25 mg/kg oral bid x 10 days, P3 (third day after cessation)): 1.035 ± 0.21 | Serum DHBV-DNA level Inhibitory Rate (%) ([2]; Lot III, 25 mg/kg oral bid x 10 days, P3 vs T0): 16.14* % | Serum DHBV-DNA OD490 value (X ± SD) ([2]; Lot III, 25 mg/kg oral bid x 10 days, T0 (day before administration)): 1.263 ± 0.35 | Serum DHBV-DNA OD490 value (X ± SD) ([2]; Lot III, 25 mg/kg oral bid x 10 days, T5): 1.079 ± 0.23 | Serum DHBV-DNA level Inhibitory Rate (%) ([2]; Lot III, 25 mg/kg oral bid x 10 days, T5 vs T0): 11.66* % | Serum DHBV-DNA OD490 value (X ± SD) ([2]; Lot III, 25 mg/kg oral bid x 10 days, T10): 1.076 ± 0.16 | Serum DHBV-DNA level Inhibitory Rate (%) ([2]; Lot III, 25 mg/kg oral bid x 10 days, T10 vs T0): 11.96* % | Serum DHBV-DNA OD490 value (X ± SD) ([2]; Lot III, 50 mg/kg oral bid x 10 days, P3 (third day after cessation)): 1.368 ± 0.11 | Serum DHBV-DNA level Inhibitory Rate (%) ([2]; Lot III, 50 mg/kg oral bid x 10 days, P3 vs T0): 16.59** % | Serum DHBV-DNA OD490 value (X ± SD) ([2]; Lot III, 50 mg/kg oral bid x 10 days, T0 (day before administration)): 1.649 ± 0.13 | Serum DHBV-DNA OD490 value (X ± SD) ([2]; Lot III, 50 mg/kg oral bid x 10 days, T5): 1.459 ± 0.28 | Serum DHBV-DNA level Inhibitory Rate (%) ([2]; Lot III, 50 mg/kg oral bid x 10 days, T5 vs T0): 11.03* % | Serum DHBV-DNA OD490 value (X ± SD) ([2]; Lot III, 50 mg/kg oral bid x 10 days, T10): 1.411 ± 0.31 | Serum DHBV-DNA level Inhibitory Rate (%) ([2]; Lot III, 50 mg/kg oral bid x 10 days, T10 vs T0): 13.00% | Serum DHBV-DNA OD490 value (X ± SD) ([2]; Lot III, 100 mg/kg oral bid x 10 days, P3 (third day after cessation)): 1.146 ± 0.56 | Serum DHBV-DNA level Inhibitory Rate (%) ([2]; Lot III, 100 mg/kg oral bid x 10 days, P3 vs T0): 18.34% | Serum DHBV-DNA OD490 value (X ± SD) ([2]; Lot III, 100 mg/kg oral bid x 10 days, T0 (day before administration)): 1.474 ± 0.38 | Serum DHBV-DNA OD490 value (X ± SD) ([2]; Lot III, 100 mg/kg oral bid x 10 days, T5): 1.351 ± 0.30 | Serum DHBV-DNA level Inhibitory Rate (%) ([2]; Lot III, 100 mg/kg oral bid x 10 days, T5 vs T0): 2.76% | Serum DHBV-DNA OD490 value (X ± SD) ([2]; Lot III, 100 mg/kg oral bid x 10 days, T10): 1.046 ± 0.42 | Serum DHBV-DNA level Inhibitory Rate (%) ([2]; Lot III, 100 mg/kg oral bid x 10 days, T10 vs T0): 28.41** % | Selection index (CC50/EC50) (HIV-1 IIIB [3]): 4.49 ± 0.94 | Median effective concentration (EC50), HIV-1 P24 antigen (HIV-1 IIIB [3]; 96 hours): 0.07 ± 0.01 µg/mL | Selection index (CC50/EC50) [4]: 5.12 ± 0.33 | Median effective concentration (EC50), HIV-1 P24 antigen ([4]; 96 hours): 1.11 ± 0.11 µg/mL | Median effective concentration (EC50), HIV-1 P24 antigen (HIV-1 IIIB [5]; H9 cell chronically infected with HIV-1 IIIB, 96 hours): >0.25 ± 0 µg/mL | inhibition effect on HIV-1 IIIB chronically-infected H9 cells (HIV-1 IIIB [5]; two lots of tests): no inhibition effect | Selection index (CC50/EC50) [6]: 5.75 ± 0.67 | Median effective concentration (EC50), HIV-1 P24 antigen ([6]; 96 hours): 0.97 ± 0.13 µg/mL | Median cytotoxicity concentration (CC50) [7]: 1.915 ± 0.09 µg/mL | solubility in DMSO (solubility; DMSO): soluble | solubility in water (solubility; water): insoluble
